The values below are quoted from earlier work in patent US7799760B2 (Centro de Ingenieria Genetica y Biotecnologia, priority 2001, dated 2010).

The test system of this series is chronic neuropathic diabetic ulcers.

For the substance Becaplermin, for the setting “in the third month”, the rate of recurrence result was “about 30%”. Further, the efficacy (multicenter, controlled, randomized clinical trial in the USA, neuropathic foot ulcers with normal arterial blood supply, topical gel) is 50%.
